Values quoted from earlier work as cited in patent US20250009831A1, “COMBINATION OF SCUTELLARIA EXTRACTS WITH CITRUS BERGAMIA OR CYNARA CARDUNCULUS EXTRACTS AND FORMULATIONS CONTAINING THEM” (AKHYNEX S.R.L., priority 2021, published 2025).

System: rats treated with orotic acid to induce fatty liver disease

## O=C(O)[C@H]1O[C@@H](Oc2cc3oc(-c4ccccc4)cc(=O)c3c(O)c2O)[C@H](O)[C@@H](O)[C@@H]1O [baicalin]
rat, in vivo
  FFA-induced lipotoxicity: had a preventive effect on FFA-induced lipotoxicity
Rats treated with orotic acid
  accumulation of fats in the liver: inhibited the accumulation of fats in the liver
  hypertrophy of the hepatocytes: attenuated hypertrophy of the hepatocytes
